Results from patent publication US5523305A, “Tachykinin receptor antagonists, isoquinolones and their production” (Takeda Chemical Industries, Ltd., priority 1992, dated 1996).
pIC50: −log10 of the molar value. Like-named read-outs stand apart in the source and are kept apart here. Each block holds one molecule with its values, some of them ahead of it.

Tests used:
[1] = target: T1, substance P receptor from rat forebrain (Rattus norvegicus, UniProt P14600); assay: Radioligand receptor binding inhibitory assay using receptor from rat forebrain (125I-BHSP); set-up: species or system rat (Wistar)
T1 construct: The receptor was prepared from the brain of Wistar rats (male, 8 weeks old, Charles-River); from tissue; host or cells: forebrain membranes of male Wistar rats
Experimental: (1) Radioligand receptor binding inhibitory assay using receptor from rat forebrain The method of R. Qirion and […] (Neuropeptide 4, 325 (1984)) was modified and used. The receptor was prepared from the brain of Wistar rats (male, 8 weeks old, Charles-River). The rat was sacrificed by decapitation and the forebrain was isolated. The forebrain was homogenized in 30 ml/rat of 150 mM Tris-HCl buffer (pH 7.4) containing 120 mM sodium chloride and 5 mM potassium chloride using a Polytron homogenizer (Kinematika, Germany) and centrifuged at 40,000×G for 20 minutes. The pellet was suspended in 30 ml of 50 mM Tris-HCl buffer (pH 7.4) containing 300 mM potassium chloride and 10 mM ethylenediaminetetracetic acid and stirred gently with ice-cooling for 30 minutes. This suspension was centrifuged at 40,000×G for 20 minutes and the pellet was washed with 30 ml of 50 mM Tris-HCl buffer (pH 7.4). The receptor specimen thus obtained was preserved frozen (-80° C.). The above specimen was suspended in a reaction buffer (50 mM Tris-HCl buffer (pH 7.4), 0.02% bovine serum albumin, 1 mM phenylmethylsulfonyl fluoride, 2 μg/ml chymostatin, 40 μg/ml bacitracin, 3 mM manganese chloride) at a protein concentration of 1.5 mg/ml and a 100 μl portion of the suspension was used in the reaction. […] The amount of nonspecific binding was determined by adding substance P at a final concentration of 2×10^-6 M. After the reaction, using a cell harvester (290PHD, Cambridge Technology, Inc., England), rapid filtration was carried out through a glass filter (GF/B, Whatman, U.S.A.) to stop the reaction. After washings three times with 250 μl of 50 mM Tris-HCl buffer (pH 7.4) containing 0.02% bovine serum albumin, the radioactivity remaining on the filter was measured with a gamma counter. Before use, the filter was immersed in 0.1% polyethyleneimine for 24 hours and air-dried.

[2] = target: T2, substance P receptor from human lymphoblast cells (IM-9) (Homo sapiens, UniProt P25103); assay: Radioligand receptor binding inhibitory assay using receptor from human lymphoblast cells (IM-9) (125I-BHSP)
T2 construct: The receptor was prepared from human lymphoblast cells (IM-9); endogenous in cells; host or cells: IM-9 human lymphoblast cells
Experimental: (2) Radioligand receptor binding inhibitory assay using receptor from human lymphoblast cells (IM-9)
The method of A. Margaret et al. [Molecular Pharmacology 42, 458 (1992)] was modified and used. The receptor was prepared from human lymphoblast cells (IM-9). IM-9 cells were grown in 175 cm^2 tissue culture flasks (100 ml×10) at a density approximately 2×10^5 /ml of RPMI 1640 with L-glutamine, 10% (V/V) heat inactivated fetal calf serum, penicillin (100 u/ml), and streptomycin (100 μg/ml) at 37° C. in 5%CO2 /95% air for 3 days. IM-9 cells were obtained by centrifugation at 500×g for 5 minutes at 5° C. The pellet obtained was washed once with phosphate buffer (Flow Laboratories, CAT. No. 28-103-05), homogenized using Polytron homogenizer(Kinematika, Germany) in 30 ml of 50 mM Tris-HCl buffer containing 120 mM NaCl, 5 mM KCl, 2 μg/ml phenylmethyl sufonyl fluoride, and 1 mM ethylenediamine tetra-acetic acid, and then centrifuged at 40,000×g for 20 minutes. The residue was washed twice with 30 ml of buffer described above, and preserved frozen (-80° C.).
The above specimen was suspended in a reaction buffer (50 mM Tris-HCl buffer (pH 7.4), 0.02% bovine serum albumin, 1 mM phenylmethylsulfonyl fluoride, 2 μg/ml chymostatin, 40 μg/ml bacitracin, 3 mM manganese chloride) at a protein concentration of 1.5 mg/ml and a 100 μl portion of the suspension was used in the reaction. After addition of the sample and 125I-BHSP (0.46 KBq), the reaction was conducted in 0.2 ml of reaction buffer at 25° C. for 30 minutes. The amount of nonspecific binding was determined by adding substance P at a final concentration of 2×10^-6 M. After the reaction, using a cell harvester (290PHD, Cambridge Technology, Inc., England), rapid filtration was carried out through a glass filter (GF/B, Whatman, U.S.A.) to stop the reaction. After washing three times with 250 μl of […] buffer (pH 7.4) containing 0.02% bovine serum albumin, the radioactivity remaining on the filter was measured with a gamma counter. Before use, the filter was immersed in 0.1% polyethyleneimine for 24 hours and air-dried.

[3] = read-out: concentration necessary to cause 50% inhibition [IC50], human lymphoblast IM-9 cell receptor, 25° C., 30 minutes, pH 7.4

T1 sequence (P14600 whole entry): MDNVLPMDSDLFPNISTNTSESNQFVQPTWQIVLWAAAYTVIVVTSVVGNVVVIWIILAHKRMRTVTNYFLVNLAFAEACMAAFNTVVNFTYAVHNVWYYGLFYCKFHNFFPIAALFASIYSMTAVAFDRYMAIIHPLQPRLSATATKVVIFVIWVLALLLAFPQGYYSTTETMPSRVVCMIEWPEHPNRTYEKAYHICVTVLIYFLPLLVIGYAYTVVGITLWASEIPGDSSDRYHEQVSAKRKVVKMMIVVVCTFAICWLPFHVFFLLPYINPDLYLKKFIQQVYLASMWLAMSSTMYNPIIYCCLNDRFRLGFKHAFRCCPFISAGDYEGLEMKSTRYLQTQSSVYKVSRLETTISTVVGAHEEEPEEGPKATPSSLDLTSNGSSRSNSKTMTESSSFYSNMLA
T2 sequence (P25103 whole entry): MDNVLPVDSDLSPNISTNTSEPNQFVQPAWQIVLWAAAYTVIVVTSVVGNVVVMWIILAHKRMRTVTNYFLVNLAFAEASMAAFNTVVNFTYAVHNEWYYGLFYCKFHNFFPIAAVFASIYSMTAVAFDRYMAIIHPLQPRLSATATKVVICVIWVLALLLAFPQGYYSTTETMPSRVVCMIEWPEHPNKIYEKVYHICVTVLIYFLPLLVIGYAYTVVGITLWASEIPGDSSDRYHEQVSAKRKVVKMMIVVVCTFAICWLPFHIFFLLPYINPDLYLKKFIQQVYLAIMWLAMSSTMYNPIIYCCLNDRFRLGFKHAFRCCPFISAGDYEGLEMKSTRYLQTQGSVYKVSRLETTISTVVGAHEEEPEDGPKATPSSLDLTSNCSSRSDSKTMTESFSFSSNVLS

SMILES: Cc1cccc(CNC(=O)Nc2c(-c3ccccc3)c3cc(C)c(C)cc3c(=O)n2C)c1 [Example 17, N-(1,2-Dihydro-2,6,7-trimethyl-1-oxo-4-phenylisoquinolin-3-yl)-N'-(3-methylbenzyl)urea]
pIC50 ([1]; read-out: concentration necessary to cause 50% inhibition [IC50], 25° C., 30 minutes, pH 7.4): 7.74

SMILES: COc1ccccc1-c1c(NC(=O)NCc2ccccc2)n(C)c(=O)c2ccccc12 [Example 24, N-Benzyl-N'-[1,2-dihydro-4-(2-methoxyphenyl)-2-methyl-1-oxoisoquinolin-3-yl]urea]
pIC50 ([1]; 25° C., 30 minutes, pH 7.4): 7.00

SMILES: COc1ccccc1CN(C)C(=O)Nc1c(-c2ccccc2)c2cc(C)c(C)cc2c(=O)n1C [Example 3, N-(1,2-Dihydro-2,6,7-trimethyl-1-oxo-4-phenylisoquinolin-3-yl)-N'-(2-methoxybenzyl)-N'-methylurea]
pIC50 [2, 3]: 7.64

SMILES: CCn1c(NC(=O)NCc2ccccc2)c(-c2ccccc2)c2cc(C)c(C)cc2c1=O [Example 19, N-Benzyl-N'-(2-ethyl-1,2-dihydro-6,7-dimethyl-1-oxo-4-phenylisoquinolin-3-yl)urea]
pIC50 ([1]; 25° C., 30 minutes, pH 7.4): 7.49

SMILES: Cc1cc2c(-c3ccccc3)c(NC(=O)NCC3CCCCC3)n(C)c(=O)c2cc1C [Example 15, N-Cyclohexylmethyl-N'-(1,2-dihydro-2,6,7-trimethyl-1-oxo-4-phenylisoquinolin-3-yl)urea]
pIC50 ([1]; 25° C., 30 minutes, pH 7.4): 7.12

SMILES: Cc1ccc(CNC(=O)Nc2c(-c3ccccc3)c3cc(C)c(C)cc3c(=O)n2C)cc1 [Example 16, N-(1,2-Dihydro-2,6,7-trimethyl-1-oxo-4-phenylisoquinolin-3-yl)-N'-(4-methylbenzyl)urea]
pIC50 ([1]; 25° C., 30 minutes, pH 7.4): 7.96

SMILES: Cc1cc2c(-c3ccccc3)c(NC(=O)NCc3ccccc3C)n(C)c(=O)c2cc1C [Example 18, N-(1,2-Dihydro-2,6,7-trimethyl-1-oxo-4-phenylisoquinolin-3-yl)-N'-(2-methylbenzyl)urea]
pIC50 ([1]; 25° C., 30 minutes, pH 7.4): 7.85

SMILES: Cc1cc2c(-c3ccccc3)c(NC(=O)N(C)Cc3ccccc3Cl)n(C)c(=O)c2cc1C [Example 52]
pIC50 [2, 3]: 8.38

SMILES: Cc1cc2c(-c3ccccc3)c(NC(=O)N(C)Cc3ccccc3)n(C)c(=O)c2cc1C [Example 1, N-Benzyl-N'-(1,2-dihydro-2,6,7-trimethyl-1-oxo-4-phenylisoquinolin-3-yl)-N-methylurea]
pIC50 [2, 3]: 7.80

SMILES: CCN(Cc1ccccc1)C(=O)Nc1c(-c2ccccc2)c2cc(C)c(C)cc2c(=O)n1C [Example 53, N-Benzyl-N-ethyl-N'-(1,2-dihydro-2,6,7-trimethyl-1-oxo-4-phenylisoquinolin-3-yl)urea]
pIC50 [2, 3]: 7.18

Results, then the molecule that gave them:

pIC50 ([1]; 25° C., 30 minutes, pH 7.4): 7.72
SMILES: Cc1cc2c(-c3ccccc3)c(NC(=O)NCc3ccccc3)n(C)c(=O)c2cc1C [Example 2, N-Benzyl-N'-(1,2-dihydro-2,6,7-trimethyl-1-oxo-4-phenylisoquinolin-3-yl)ure]

pIC50 ([1]; 25° C., 30 minutes, pH 7.4): 7.19
SMILES: Cc1cc2c(-c3ccccc3)c(NC(=O)NCc3ccco3)n(C)c(=O)c2cc1C [Example 12, N-(2-Furfuryl)-N'-(1,2-dihydro-2,6,7-trimethyl-1-oxo-4-phenylisoquinolin-3-yl)urea]

pIC50 ([1]; 25° C., 30 minutes, pH 7.4): 7.25
SMILES: Cc1cc2c(-c3ccccc3)c(NC(=O)NCc3cccs3)n(C)c(=O)c2cc1C [Example 14, N-(1,2-Dihydro-2,6,7-trimethyl-1-oxo-4-Phenylisoquinolin-3-yl)-N'-(2-thiophenemethyl)urea]

pIC50 ([1]; 25° C., 30 minutes, pH 7.4): 7.38
SMILES: Cc1cc2c(-c3ccccc3)c(NC(=O)NCc3ccccn3)n(C)c(=O)c2cc1C [Example 13, N-(1,2-Dihydro-2,6,7-trimethyl-1-oxo-4-phenylisoquinolin-3-yl)-N'-(2-pyridinemethyl)urea]

pIC50 ([2]; human lymphoblast IM-9 cell receptor, 25° C., 30 minutes, pH 7.4): 7.12
SMILES: Cc1cc2c(-c3ccccc3)c(NC(=O)NCc3ccccc3Cl)n(C)c(=O)c2cc1C [Example 42, N-(2-Chlorobenzyl)-N'-(1,2-dihydro-2,6,7-trimethyl-1-oxo-4-phenylisoquinolin-3-yl)urea]
